Assay [1] deals with alcohol intake. To be noted: mice; effect dependent on induction of GDNF in the VTA; cited from earlier work.
The test system of assay [2] is alcohol intake. The settings on record: rats; effect dependent on induction of GDNF in the VTA; cited from earlier work.
For assay [3], the system named is GDNF release from C6 glioma cells. In words: GDNF in-situ ELISA in C6 glioma cells. To be noted: 10 μM compound, 48-hour incubation, fold over control release, corrected for pre-treatment release; for fold induction at 10 µM: C6 glioma, 48 h, read-out: Fold-Increase of GDNF Concentration. The class given is cell-based. The procedure:
The GDNF Emax Immunoassay System from Promega (Madison, Wis.) was used to determine small molecule induced GDNF release from C6 glioma cells (ATCC, Manassas, Va.) with the following protocol. A 96-well ELISA plate was sterilized with UV for 30 minutes. The plate was coated with 100 μl/well of the anti-GDNF monoclonal antibody solution in carbonate coating buffer prepared per the manufacturer's instructions, and incubated overnight at 4° C. The antibody coating buffer was removed from the plate, which was then blocked according to the instructions in the kit. The plate was then incubated with 200 μl/well complete growth medium ([…], 5% FBS, 1% penicillin/streptomycin) for 2×1 h at rt to remove residue of the blocking buffer. After these washes were complete, fresh culture media was added to the wells. C6 cells were seeded at a density of 11,000 cells/well, with a total volume of approximately 150 μl in each well. The plate was incubated at 37° C. in an atmosphere containing 5% CO2. After 24 hours, complete growth medium was replaced with low serum medium (98.5% DMEM, 0.5% FBS, 1% penicillin/streptomycin) and the plate was incubated overnight for cellular synchronization. On the following day, cells were treated with experimental compounds for the indicated time. We used 10 μM concentrations of the tested compounds during a 48-hour incubation. Simultaneously with initiation of treatment, cells were removed from pre-treatment control wells with 5×200 μL washes of TBST (to control for basal GDNF release before the treatment period), and low-serum medium was added to these wells. 6 hours prior to stopping treatment with experimental compounds, the GDNF standard was added to the plate per the manufacturer's instructions. To terminate the treatment, the plate was washed extensively with 200 μl/well TBST washing buffer 5 times, which removed the cells. GDNF release for each well was measured according to GDNF Emax Immunoassay system instructions, and a plate reader was used to measure absorbance at 450 nm. Total GDNF release is calculated from the standard curve using Microsoft Excel. The listed values in Table 1 are presented as fold-increase of release of GDNF over control release of GDNF, corrected for pre-treatment release by subtracting from all values the mean amount of GDNF released in pre-treatment control wells. Statistical significance was determined using the Student's t-test.

For assay [4], the system named is GDNF release from C6 cells. Nature of the assay: GDNF releasing potency assay (dose-response in C6 cells). To be noted: 0.1-50 uM, concentration giving 50% of maximal GDNF release. The assay is classed as cell-based. As to the method: Four compounds were selected for determination of GDNF releasing potency. The EC50 value (Table 3) is defined as the concentration of the compound at which 50% of maximal GDNF release is obtained. The C6 cells were incubated with the selected compounds over a range of concentrations (0.1, 1, 5, 10, 20, 30 and 50 uM for each compound) and the amount of released GDNF at each concentration was via examing the dose-dependent release. A dose-response curve was constructed and the EC50 value was obtained by fitting this curve using GraphPad Prism software.

Where [5] appears, read: Rattus norvegicus, C6, C6 cells.

Read-outs that look alike come from different tables or passages of the source.

On to ibogaine, for which the “self-administration and reinstatement of alcohol intake” value with alcohol intake [1] was “reduce self-administration and reinstatement of alcohol intake”; in the assay on alcohol intake [2], “reduce self-administration and reinstatement of alcohol intake”. `CCC1CC2CCC1N(CCc1c[nH]c3ccccc13)C2` (racemic) [Compound 13a, endo-2-[2-(1H-indol-3-yl)ethyl]-7-ethyl-2-azabicyclo [2.2.2]octane]: the fold induction at 10 µM in assay [3] stood at 2. The same measure, in the same setting: to `CCOC(=O)c1[nH]c2ccccc2c1CCN1CC2C=CC1C(CC)C2` (racemic) [Compound 12d, endo-ethyl-3-[2-(7-ethyl-2-azabicyclo[2.2.2]oct-5-en-2-yl)ethyl]-1H-indole-2-carboxylate] belongs 1.5. Turning to `CC[C@H]1C[C@H]2C[C@H]3c4[nH]c5ccc(O)cc5c4CCN(C2)[C@@H]13` [noribogaine], the “self-administration and reinstatement of alcohol intake” value in the assay on alcohol intake [1] is “reduce self-administration and reinstatement of alcohol intake”; with alcohol intake [2], “reduce self-administration and reinstatement of alcohol intake”. The term EC50 denotes the concentration at which the effect is half-maximal. Read a high EC50 as a less potent agent. On to `CCC1CC2C=CC1N(CCc1c[nH]c3ccccc13)C2` (racemic) [Compound 12a, endo-2-[2-(1H-indol-3-yl)ethyl]-7-ethyl-2-azabicyclo[2.2.2]oct-5-ene], for which, in assay [3], the fold induction at 10 µM was determined as 2 ± 0.1. The molecule further came in with a half-maximal effective concentration (EC50) in assay [4] (C6 cells) of 18.2 ± 0.2 µM. Consider `CCC1CC2C=CC1N(CCc1nc3ccccc3[nH]1)C2` (racemic) [Compound 12l, endo-2-[2-(1H-benzo[d]imidazol-2-yl)ethyl]-7-ethyl-2-azabicyclo[2.2.2]oct-5-ene], for which the fold induction at 10 µM in assay [3] was 1.5. As for `CCC1CC2C=CC1N(CCc1c[nH]c3ccc(F)cc13)C2` (racemic) [Compound 12h, endo-7-ethyl-2-[2-(5-fluoro-1H-indol-3-yl)ethyl]-2-azabicyclo[2.2.2]oct-5-ene], the fold induction at 10 µM in assay [3] was determined as 3.1 ± 0.2. For the same molecule, a half-maximal response in assay [4] (setting [5]) (EC50) required 3.3 µM.

Turning to `CCC1CC2C=CC1N(CCc1c[nH]c3ccccc13)C2` (racemic) [Compound 10a, exo-2-[2-(1H-indol-3-yl)ethyl]-7-ethyl-2-azabicyclo[2.2.2]oct-5-ene], the “Fold-Increase of GDNF Concentration” value in assay [3] is 3.2 ± 0.2 fold. Further, it took 10.2 ± 0.3 µM to reach a half-maximal effect in assay [4] (setting [5]) (EC50). For `C1=CC2CCC1CN2CCc1c[nH]c2ccccc12` (racemic) [Compound 18a, 2-[2-(1H-indol-3-yl)ethyl]-2-azabicyclo[2.2.2]oct-5-ene], in assay [3], the fold induction at 10 µM came to 1.6.

Turning to `CCOC(=O)C1CC2C=CC1N(CCc1c[nH]c3ccccc13)C2` (racemic) [Compound 22, 7-endo-ethoxycarbonyl-2-[2-(1H-indol-3-yl)ethyl]-2-azabicyclo[2.2.2]oct-5-ene], in assay [3], the “Fold-Increase of GDNF Concentration” value is on record as 2.0 ± 0.0 fold.

For `CCC1CC2C=CC1N(CCc1c[nH]c3ccc(OC)cc13)C2` (racemic) [Compound 12c, endo-7-ethyl-2-[2-(5-methoxy-1H-indol-3-yl)ethyl]-2-azabicyclo [2.2.2]oct-5-ene], in assay [3], the “Fold-Increase of GDNF Concentration” value is recorded as 2.1 ± 0.1 fold. Take `CCC1CC2C=CC1N(CCc1coc3ccccc13)C2` (racemic) [Compound 12g, endo-2-[2-(benzofuran-3-yl)ethyl]-7-ethyl-2-azabicyclo [2.2.2]oct-5-ene]: in assay [3], the fold induction at 10 µM turned out to be 2.9 ± 0.1. Also, the 50% effective concentration (EC50) in assay [4] (C6 cells) was 3.6 ± 0.1 µM; in assay [4] (setting [5]) it was 3.3 µM. Regarding `CCC1CC2C=CC1N(CCCc1c[nH]c3ccccc13)C2` (racemic) [Compound 12b, endo-2-[3-(1H-indol-3-yl)propyl]-7-ethyl-2-azabicyclo [2.2.2] oct-5-ene], the fold induction at 10 µM in assay [3] was determined as 1.5. Still for that read-out and setting: to `CCOC(=O)C1CC2C=CC1N(CCc1c[nH]c3ccccc13)C2` (racemic) [Compound 21, 7-exo-ethoxycarbonyl-2-[2-(1H-indol-3-yl)ethyl]-2-azabicyclo[2.2.2]oct-5-ene] belongs 1; to `CCC1CC2C=CC1N(CCc1c[nH]c3ccc(OC)cc13)C2` (racemic) [Compound 10b, exo-7-ethyl-2-[2-(5-methoxy-1H-indol-3-yl)ethyl]-2-azabicyclo[2.2.2]oct-5-ene], 2.2 ± 0.2.

The values above are taken from patent publication US9988377B2, “Small molecule inducers of GDNF as potential new therapeutics for neuropsychiatric disorders” (THE TRUSTEES OF COLUMBIA UNIVERSITY IN THE CITY OF NEW YORK, priority 2011, dated 2018).
